This passage reports IC50 results from US20220380371A1, “MLL1 INHIBITORS AND ANTI-CANCER AGENTS” (NOVARTIS AG, priority 2019, published 2022).

Assay [1] concerns the target wild type MLL1 four-member complex (MLL1-4C) (Homo sapiens, UniProt Q03164). Briefly: MLL1 LC-MS Assay. It counts as biochemical. In outline:
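Compound pre-incubated 20 min with MLL1-4C and SAM, then H3[1-21]-biotin (H3K4me0) substrate added; final 30 nM enzyme, 2.5 μM SAM, 10 μM peptide in Tris pH 8.0 with MgCl2, DTT, Tween 20, BSA. After 120 min at rt, TFA-quenched SAH quantified by LC-MS/MS with d4-SAH; IC50 from dose-response fit.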

Assay [2] addresses wild type MLL1 five-member complex (MLL1-5C) (Homo sapiens, UniProt Q03164). In words: MLL1 Flashplate Assay. The class given is biochemical. The note with it: read-out: MLL1 flash plate. On the procedure: MLL1 Flashplate Assay To assess the compound potency in MLL1 Flashplate assay, compounds were serially diluted 3-fold in DMSO to obtain a total of twelve concentrations. Then the test compounds at each concentration (250 nL of each) were transferred by Mosquito into Corning #3675 384-well plate. Solutions (15 μL) of 4.2 nM wild type MLL1 five-member complex (MLL1-5C) in the assay buffer (20 mM Tris-HCl, pH 8.0, 0.01% Tween 20, 1 mM DTT, 0.01% BSA) were added to the wells. A 10 μL solution of 2.5 μM of the peptide substrate H3K4me0 (histone H3[1-21]-Biotin) and 1.25 μM ^3H-SAM in the reaction buffer was then added to initiate each reaction. The final components in the reaction solution include 2.5 nM MLL1-5C, 0.5 μM ^3H-SAM, and 1 μM H3K4me0 with varying concentration of the compounds. A positive control consisted of 2.5 nM MLL1-5C, 0.5 μM ^3H-SAM, and 1 μM substrate in the absence of the test compound, and a negative control consisted of 0.5 μM ^3H-SAM, and 1 μM substrate only. Each reaction was incubated at rt for 90 min, then stopped by addition of 5 μL per of quench solution (0.5 mM SAM in assay buffer). 25 μL of each reaction solution was transferred to FlashPlate streptavidin 384-well microplate (PerkinElmer). After at least 1 h incubation at rt, the wells were washed three times with 0.1% Tween-20 in dH2O using the BioTek plate washer. The plates were then read in MicroBeta (PerkinElmer). The radioactive readouts were then normalized based on the values coming from the positive and negative controls to give percent enzyme activities. The data were then fit to a dose response equation using the program Helios to get the IC50 values of the test compounds.

The test system of a further assay is H3K4me3 in MV4-11 cells. In words: MV4-11 H3K4me3 Cellular ELISA Assay. The class given is cell-based. In outline:
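MV4-11 cells were treated for 48 h with 12-point 1:3 compound dilutions (from 10 mM stock), then histones were acid-extracted with 0.5M HCl and neutralized. H3K4me3 and total H3 were measured by HRP chemiluminescent ELISA, and inhibition versus DMSO after H3 normalization was curve-fitted for IC50.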
In general terms: An ELISA detects its analyte on a solid surface through an enzyme-linked reagent.

The next assay relates to MV4-11 cells. Briefly: MV4-11 6-Day Cell Growth CTG (CellTiter-Glo) Assay. It counts as cell-based. The note with it: MV4-11 cell growth CellTiter-Glo, 6 days. In outline: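 MV4-11 AML cells (RPMI 1640, 10% FBS) seeded at 300 cells/well and exposed for 6 days at 37 °C to a 12-point, 1:3 compound series starting at 50 μM final. Viable cells read by CellTiter-Glo luminescence; percent inhibition versus DMSO-only wells fitted to dose-response curves for IC50.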

Like-named read-outs stand apart in the source and are kept apart here.

For `Nc1ncnc2c1ncn2Cc1c(Br)cc(Cl)cc1N1CC[C@](N)(CO)C1` (stereo in doubt) [Example 107], the IC50 in assay [1] (read-out: LCMS) was greater than 100 nM; in assay [2], greater than 100 nM; in the assay with H3K4me3 in MV4-11 cells (48 hours), greater than 3000 nM; in the assay with MV4-11 cells, less than 2000 nM.
`Nc1ncnc2c1ncn2Cc1c(Br)cc(Cl)cc1N1CC[C@](N)(C(=O)NC2CC2)C1` [Example 1, (R)-3-amino-1-(2-((6-amino-9H-purin-9-yl)methyl)-3-bromo-5-chlorophenyl)-N-cyclopropylpyrrolidine-3-carboxamide]: the IC50 was less than 50 nM in assay [1] (read-out: LCMS); less than 60 nM in assay [2]; less than 1900 nM in the assay on H3K4me3 in MV4-11 cells (Homo sapiens, MV4-11, 48 h); 2000 to 3000 nM in the assay with MV4-11 cells (Homo sapiens, MV4-11, 144 h).
In the case of `CCc1cc(Cl)cc(N2CC[C@](N)(C(=O)NC3CC3)C2)c1Cn1cnc2c(N)ncnc21` [Example 2, (R)-3-amino-1-(2-((6-amino-9H-purin-9-yl)methyl)-5-chloro-3-ethylphenyl)-N-cyclopropylpyrrolidine-3-carboxamide], the IC50 is less than 50 nM in assay [1] (read-out: LCMS); less than 60 nM in assay [2]; less than 1900 nM in the assay with H3K4me3 in MV4-11 cells (Homo sapiens, MV4-11, 48 h); less than 2000 nM in the assay on MV4-11 cells (Homo sapiens, MV4-11, 144 h).
As to `Nc1ncnc2c1ncn2Cc1c(-c2ccc3c(c2)CCO3)cc(Cl)cc1N1CC[C@](N)(C(=O)NC2CC2)C1` [Example 3], the IC50 is greater than 100 nM in assay [1] (read-out: LCMS); greater than 100 nM in assay [2]; greater than 3000 nM with H3K4me3 in MV4-11 cells (Homo sapiens, MV4-11, 48 h); greater than 3000 nM with MV4-11 cells (Homo sapiens, MV4-11, 144 h).
Turning to `N#Cc1c(F)ccc(N2CC[C@](N)(C(=O)NC3CC3)C2)c1Cn1cnc2c(N)ncnc21` [Example 4], the IC50 in assay [1] (read-out: LCMS) was greater than 100 nM; in assay [2], greater than 100 nM; in the assay with H3K4me3 in MV4-11 cells (Homo sapiens, MV4-11, 48 h), 1900 to 3000 nM; in the assay with MV4-11 cells (Homo sapiens, MV4-11, 144 h) it was greater than 3000 nM.
On to `Nc1ncnc2c1ncn2Cc1c(N2CC[C@](N)(CCc3ccccn3)C2)ccc(F)c1C(F)(F)F` [Example 28], for which the IC50 is greater than 100 nM in assay [1] (read-out: LCMS); greater than 100 nM in assay [2]; greater than 3000 nM with H3K4me3 in MV4-11 cells (Homo sapiens, MV4-11, 48 h).
On to `CN(C)Cc1c(F)cc(Cl)c(N2CC[C@](N)(C(=O)NC3CC3)C2)c1Cn1cnc2c(N)ncnc21` [Example 72, (R)-3-amino-1-(2-((6-amino-9H-purin-9-yl)methyl)-6-chloro-3-((dimethylamino)methyl)-4-fluorophenyl)-N-cyclopropylpyrrolidine-3-carboxamide], for which the IC50 in assay [1] (read-out: LCMS) is greater than 100 nM; in assay [2] it was greater than 100 nM; in the assay on H3K4me3 in MV4-11 cells (Homo sapiens, MV4-11, 48 h) it was greater than 3000 nM.
Consider `Nc1ncnc2c1ncn2Cc1c(CN2CCOCC2)c(F)cc(Cl)c1N1CC[C@](N)(C(=O)NC2CC2)C1` [Example 75], for which the IC50 is 50 to 100 nM in assay [1] (read-out: LCMS); greater than 100 nM in assay [2]; greater than 3000 nM in the assay on H3K4me3 in MV4-11 cells (Homo sapiens, MV4-11, 48 h).
Regarding `Cn1nnnc1[C@@]1(N)CCN(c2cc(Cl)cc(Br)c2Cn2cnc3c(N)ncnc32)C1` [Example 90, (R)-9-(2-(3-amino-3-(1-methyl-1H-tetrazol-5-yl)pyrrolidin-1-yl)-6-bromo-4-chlorobenzyl)-9H-purin-6-amine], the IC50 in assay [1] (read-out: LCMS) was less than 50 nM; in assay [2], greater than 100 nM; in the assay with H3K4me3 in MV4-11 cells (Homo sapiens, MV4-11, 48 h) it was greater than 3000 nM.
For `CC1(C)Cc2ccc(N3CC[C@](N)(C(=O)NC4CC4)C3)c(Cn3cnc4c(N)ncnc43)c2O1` [Example 114] the same measures were greater than 100 nM, greater than 100 nM and greater than 3000 nM.
For `Nc1ncnc2c1ncn2Cc1c(Br)cc2c(c1N1CCC(N)(C(=O)NC3CC3)C1)CCO2` (centres unmarked) [Example 115] the same measures were 50 to 100 nM, less than 60 nM and greater than 3000 nM.
Turning to `Nc1ncnc2c1ncn2Cc1c(N2CC[C@](N)(C(=O)NCCc3c[nH]cn3)C2)ccc(F)c1C(F)(F)F` [Example 121], the IC50 in assay [1] (read-out: LCMS) is less than 50 nM; in the assay on H3K4me3 in MV4-11 cells (Homo sapiens, MV4-11, 48 h), less than 1900 nM; with MV4-11 cells (Homo sapiens, MV4-11, 144 h) it was less than 2000 nM.
For `Nc1ncnc2c1ncn2Cc1c(N2CC[C@](N)(C(=O)NCC3CC3(F)F)C2)ccc(F)c1C(F)(F)F` (some centres unmarked) [Example 122] the same measures were less than 50 nM, less than 1900 nM and less than 2000 nM.
In the same order, the values of `C[C@@H](NC(=O)[C@@]1(N)CCN(c2ccc(F)c(C(F)(F)F)c2Cn2cnc3c(N)ncnc32)C1)C1CCOCC1` [Example 124] are 50 to 100 nM, less than 1900 nM and less than 2000 nM.
For `Nc1ncnc2c1ncn2Cc1c(N2CC[C@](N)(C(=O)NC3CC34CCOCC4)C2)ccc(F)c1C(F)(F)F` (some centres unmarked) [Example 126] the same measures were 50 to 100 nM, less than 1900 nM and less than 2000 nM.
For the compound `Nc1ncnc2c1ncn2Cc1c(N2CC[C@](N)(C(=O)NC3CCOC3)C2)ccc(F)c1C(F)(F)F` (some centres unmarked) [Example 129], the IC50 was less than 50 nM in assay [1] (read-out: LCMS); less than 1900 nM with H3K4me3 in MV4-11 cells (Homo sapiens, MV4-11, 48 h); less than 2000 nM in the assay with MV4-11 cells (Homo sapiens, MV4-11, 144 h).
In the same order, the values of `COC1CC2(C1)CC2NC(=O)[C@@]1(N)CCN(c2ccc(F)c(C(F)(F)F)c2Cn2cnc3c(N)ncnc32)C1` (some centres unmarked) [Example 130] are less than 50 nM, less than 1900 nM and less than 2000 nM.
In the case of `Nc1ncnc2c1ncn2Cc1c(N2CC[C@](N)(C(=O)N3CCn4nccc4C3)C2)ccc(F)c1C(F)(F)F` [Example 137], the IC50 in assay [1] (read-out: LCMS) was 50 to 100 nM; with H3K4me3 in MV4-11 cells (Homo sapiens, MV4-11, 48 h), less than 1900 nM; in the assay with MV4-11 cells (Homo sapiens, MV4-11, 144 h), 2000 to 3000 nM.
For `CCCNC(=O)CCNC(=O)[C@@]1(N)CCN(c2ccc(F)c(C(F)(F)F)c2Cn2cnc3c(N)ncnc32)C1` [Example 139] the same measures were 50 to 100 nM, less than 1900 nM and less than 2000 nM.
With `Nc1ncnc2c1ncn2Cc1c(N2CC[C@](N)(c3nnn[nH]3)C2)ccc(Cl)c1I` [Example 156], the IC50 was 50 to 100 nM in assay [1] (read-out: MLL1 LCMS); less than 1900 nM in the assay on H3K4me3 in MV4-11 cells (Homo sapiens, MV4-11, 48 h); less than 2000 nM with MV4-11 cells (Homo sapiens, MV4-11, 144 h).
For `Nc1ncnc2c1ncn2Cc1c(N2CC[C@](N)(C(=O)NC3CC3)C2)ccc(F)c1C1CCCC1` [Example 158] the same measures were less than 50 nM, less than 1900 nM and less than 2000 nM.
For `[2H]C([2H])([2H])C([2H])([2H])NC(=O)[C@@]1(N)CCN(c2cc(Cl)cc(Br)c2Cn2cnc3c(N)ncnc32)C1` [Example 159] the same measures were less than 50 nM, less than 1900 nM and 2000 to 3000 nM.
For `Nc1ncnc2c1ncn2Cc1c(N2CCC(N)(C(=O)NC3CC3)C2)ccc(C(F)(F)F)c1Cl` (centres unmarked) [Example 160] the same measures were 50 to 100 nM, less than 1900 nM and less than 2000 nM.
As to `CCc1cc(Cl)cc(N2CC[C@](N)(C(=O)NC(C)C)C2)c1Cn1cnc2c(N)ncnc21` [Example 161], the IC50 in assay [1] (read-out: MLL1 LCMS) is less than 50 nM; in the assay with H3K4me3 in MV4-11 cells (Homo sapiens, MV4-11, 48 h), less than 1900 nM; in the assay on MV4-11 cells (Homo sapiens, MV4-11, 144 h), less than 2000 nM.
In the same order, the values of `COCc1c(Cl)cc(Cl)c(N2CC[C@](N)(C(=O)NC3CC3)C2)c1Cn1cnc2c(N)ncnc21` [Example 162] are 50 to 100 nM, less than 1900 nM and 2000 to 3000 nM.
Regarding `C=Cc1c(Cl)ccc(N2CC[C@](N)(C(=O)NC3CC3)C2)c1Cn1cnc2c(N)ncnc21` [Example 163], the IC50 in assay [1] (read-out: MLL1 LCMS) is less than 50 nM; with H3K4me3 in MV4-11 cells (Homo sapiens, MV4-11, 48 h) it was less than 1900 nM; in the assay with MV4-11 cells (Homo sapiens, MV4-11, 144 h), less than 2000 nM.
In the same order, the values of `Nc1ncnc2c1ncn2Cc1c(Cl)cccc1N1CCC(N)(C(=O)NC2CC2)C1` (centres unmarked) [Example 164] are 50 to 100 nM, less than 1900 nM and less than 2000 nM.
In the same order, the values of `CCc1c(Cl)ccc(N2CC[C@](N)(C(=O)NC3CC3)C2)c1Cn1cnc2c(N)ncnc21` [Example 165] are 50 to 100 nM, less than 1900 nM and less than 2000 nM.
In the same order, the values of `COc1ccc(N2CC[C@](N)(C(=O)NC3CC3)C2)c(Cn2cnc3c(N)ncnc32)c1Br` [Example 168] are 50 to 100 nM, less than 1900 nM and less than 2000 nM.
In the case of `CCc1cccc(N2CC[C@](N)(C(=O)NC3CCCC3)C2)c1Cn1cnc2c(N)ncnc21` [Example 169], the IC50 in assay [1] (read-out: MLL1 LCMS) was 50 to 100 nM; in the assay on H3K4me3 in MV4-11 cells (Homo sapiens, MV4-11, 48 h) it was less than 1900 nM; with MV4-11 cells (Homo sapiens, MV4-11, 144 h), less than 2000 nM.
